In patent US20240188568A1, “ENVIRONMENTALLY FRIENDLY COMPOSITIONS AND METHODS OF THEIR USE FOR PROMOTING THE GROWTH OF TURFGRASS OVER WEEDS” (Edaphix, LLC, priority 2021, published 2024):

Key:
turf weeds = assay: Turfgrass test plots, Bozeman, MT: weed cover; format: in vivo
Excerpt: (§1) Initially, a series of small turfgrass test plots was studied to gather preliminary information that helped guide the establishment of this larger, long-term study involving multiple rates and formulations. The test plots of this experiment were established in a weedy turfgrass location within the Bridger Creek Subdivision Community Association, Phase 1, Section 31, Township 1 South, Range 6 East, P.M.M., City of Bozeman, Gallatin County, Montana. The experimental site was established in a location with approximately 20 inches of annual precipitation, with annual maximum precipitation amounts observed in May and June. Winter conditions with frozen ground prevail during approximately 5 months of the year (November-March). Soils have high organic matter content in the upper six inches and are underlain by floodplain gravels and a water table 3-15 feet below ground surface. The primary turf weeds at this location in their order of relative prevalence are clover, dandelion, creeping Charlie, oxeye daisy, black medic and Canadian thistle. […]
(§2) The plots were typically 50 square feet (FIG. 1). Vegetation cover measurements were made using a frame placed on the turf and an estimate was calculated for the proportion of perennial grasses and weeds in each frame (FIG. 2). […] Since installation of the first plots, they have been monitored 5 times over a period of 21 months for vegetation cover. […]

perennial grasses = assay: Turfgrass test plots, Bozeman, MT: healthy perennial grass cover and turf stress; format: in vivo; settings: healthy perennial grass cover averaged over each treatment category, 21 months (Table 3)
Excerpt: as §1, with “surface.” for “surface. The primary turf weeds at this location in their order of relative prevalence are clover, dandelion, creeping Charlie, oxeye daisy, black medic and Canadian thistle.”
as §2
The boron-only plots caused turf stress and yellowing. Immediately following application in monitoring, healthy and unhealthy/stressed turf was measured based on tissue color. […]

seed geranium = settings: in combination with nitrogen, phosphorus, and potassium; Lee and others (1996); cited from earlier work
[1] = 2005 carcinogen assessment guidelines; cited from earlier work
French marigold = settings: Jong et al. (1996); cited from earlier work
chlorophyllitic plants = settings: as little as; cited from earlier work

## O=C(O)COc1ccc(Cl)cc1Cl [2-4 D, 2,4-Dichlorophenoxyacetic acid]
Turf weeds; typical value over the first 2 years of monitoring (FIG. 3), control about 50%
  weed cover, typical: ~20%
Turf weeds; weed cover averaged over each treatment category, 21 months (Table 3)
  Average Percent Ground Cover For 21-Month Monitoring Period, Weeds: 13%
Perennial grasses
  Average Percent Ground Cover For 21-Month Monitoring Period, Turf Grass: 80%

## [Cu] [Cu, copper]
Seed geranium
  concentration of nutrient solution inducing micronutrient toxicity symptoms: 500 ng/mL

## [Mo] [Mo, molybdenum]
Seed geranium
  concentration of nutrient solution inducing micronutrient toxicity symptoms: 250 ng/mL

## [Zn] [Zn, zinc]
Seed geranium
  concentration of nutrient solution inducing micronutrient toxicity symptoms: 500 ng/mL

## OB(O)O [boric acid]
[1]
  U.S. EPA carcinogenicity classification: not likely to be carcinogenic to humans

## [B] [boron]
French marigold
  concentration inducing micro-nutrient toxicity: 500 ng/mL
Seed geranium
  concentration of nutrient solution inducing micronutrient toxicity symptoms: 500 ng/mL

## O=C(O)CNCP(=O)(O)O [glyphosate]
Chlorophyllitic plants
  application rate effective at causing photosynthetic disruption: 0.75 pounds active ingredient per acre

## borate salts
[1]
  U.S. EPA carcinogenicity classification: not likely to be carcinogenic to humans
